Read-outs that look alike come from different tables or passages of the source.
Tests used:
[1] = molecular target: T1, BRD4 bromo domain 1 [BRD4(1)] (Homo sapiens, UniProt O60885); assay: BRD4(1)/acetylated peptide H4 binding assay (TR-FRET); conditions: inhibition of interaction between BRD4(1) and acetylated histone H4 peptide
T1 construct: N-terminally His6-tagged BRD4(1) (amino acids 67-152); made in house; host or cells: E. coli
Excerpt: To assess the BRD4(1) binding strength of the substances described in this application, the ability thereof to inhibit the interaction between BRD4(1) and acetylated histone H4 in a dose-dependent manner was quantified.
For this purpose, a time-resolved fluorescence resonance energy transfer (TR-FRET) assay was used, which measures the binding between N-terminally His6-tagged BRD4(1) (amino acids 67-152) and a synthetic acetylated histone H4 (Ac-H4) peptide with sequence GRGK(Ac)GGK(Ac)GLGK(Ac)GGAK(Ac)RHGSGSK-biotin. The recombinant BRD4(1) protein produced in-house according to Filippakopoulos et al., Cell, 2012, 149:214-231 was expressed in E. coli and purified by means of (Ni-NTA) affinity and (Sephadex G-75) size exclusion chromatography. The Ac-H4 peptide can be purchased, for example, from Biosyntan (Berlin, Germany).
In the assay, typically 11 different concentrations of each substance (0.1 nM, 0.33 nM, 1.1 nM, 3.8 nM, 13 nM, 44 nM, 0.15 μM, 0.51 μM, 1.7 μM, 5.9 μM and 20 μM) were analysed as duplicates on the same microtitre plate. For this purpose, 100-fold concentrated solutions in DMSO were prepared by serial dilutions (1:3.4) of a 2 mM stock solution into a clear, 384-well microtitre plate (Greiner Bio-One, Frickenhausen, Germany). From this, 50 n1 were transferred into a black test plate (Greiner Bio-One, Frickenhausen, Germany). The test was started by the addition of 2 μl of a 2.5-fold concentrated BRD4(1) solution (final concentration typically 10 nM in the 5 μl of reaction volume) in aqueous assay buffer [50 mM HEPES pH 7.5, 50 mM sodium chloride (NaCl), 0.25 mM CHAPS and 0.05% serum albumin (BSA)] to the substances in the test plate. This was followed by a 10-minute incubation step at 22° C. for the pre-equilibration of putative complexes between BRD4(1) and the substances.
The mixture was then incubated in the dark at 22° C. for one hour and then at 4° C. for at least 3 hours and for no longer than overnight. The formation of BRD4(1)/Ac-H4 complexes was determined by the measurement of the resonance energy transfer from the streptavidin-Eu cryptate to the anti-6His-XL665 antibody present in the reaction. For this purpose, the fluorescence emission was measured at 620 nm and 665 nm after excitation at 330-350 nm in a TR-FRET measuring instrument, for example a Rubystar or Pherastar (both from BMG Lab Technologies, Offenburg, Germany) or a Viewlux (Perkin-Elmer). The ratio of the emissions at 665 nm and at 622 nm was taken as an indicator of the amount of BRD4(1)/Ac-H4 complexes formed.
The data (ratios) obtained were normalized, with 0% inhibition corresponding to the mean from the measurements for a set of controls (typically 32 data points) in which all the reagents were present. In these, in place of test substances, 50 nl of DMSO (100%) were used Inhibition of 100% corresponded to the mean from the measurements for a set of controls (typically 32 data points) in which all the reagents except BRD4(1) were present. The IC50 was determined by regression analysis based on a 4-parameter equation (minimum, maximum, IC50, Hill; Y=Max+(Min−Max)/(1+(X/IC50)Hill).

Plk-1 = molecular target: T2, Plk-1 (Homo sapiens, UniProt P53350); assay: Plk-1 enzyme assay (indirect HTRF kinase assay); type: biochemical
T2 construct: Recombinant fusion protein consisting of GST and Plk (kinase domain 33-345); MW 36 kDa; GST; made in house; host or cells: insect cells (Hi5)
Method: Recombinant fusion protein consisting of GST and Plk (kinase domain 33-345; MW 36 kDa, conc 0.8 μg/μl) expressed from insect cells (Hi5) and purified by glutathione Sepharose affinity chromatography and subsequent gel filtration (Superdex 75) is used for the kinase assay. Aliquots thereof are frozen in liquid nitrogen and stored at −80° C. and, after thawing, used only once.
The assay used is an indirect HTRF assay which employs the following materials and procedures. The substrate used for the kinase reaction is the biotinylated peptide Btn-Ahx-KKLNRTLSFAEPG-amide x TFA from Biosyntan, Sample No.: 6178.1 (C-terminus in amide form). This is an artificial sequence not derived from any known protein. 50 nl of the test compounds dissolved in 100% dimethyl sulphoxide (DMSO) (final concentrations: 0 μM and concentrations in the range of 0.001-20 μM) are pre-incubated with 2 μl Plk-1 enzyme working solution in working buffer [25 mM MgCl2; 1 mM DTT; 50 mM Hepes pH 7.0; 0.01% NP40; 1× Complete; 0.05% BSA] for 30 min. The kinase reaction is then initiated by addition of 3 μl of substrate solution [adenosine triphosphate (ATP) and 1.4 μM substrate peptide (biotin-Ttds-KKLNRTLSFAEPG-NH2)] in working buffer, and, after 30 min, stopped by addition of a stopper solution (100 mM EDTA, 100 mM Hepes pH 7.5, 800 mM potassium fluoride, 0.12% BSA, 0.4 μM SA-XLent (0.05 μM, from CIS bio international, Marcoule, France), Eu^3+ cryptate-conjugated rabbit anti-mouse IgG (1.5 nM; an anti-mouse IgG antibody labelled with europium cryptate from CIS bio international, Marcoule, France), 1 nM anti-phospho-serine kinase (a phospho-specific antibody from Upstate Biotechnology, Dundee, Scotland), and incubated at 4° C. overnight.
For the test at low ATP concentration, a 1.25 ng/μl Plk-1 working solution and 16.7 μM ATP are used, for the test at high ATP concentration, a 0.039 ng/μl Plk-1 working solution and 16.7 mM ATP are used.
The amount of phosphorylated substrate peptide is then determined by measuring the resonance energy transfer from europium-labelled antibody complex to streptavidine-XLent. To this end, the fluorescence emission at 620 nm and 665 nm is measured following excitation at 350 nm in an HTRF measuring instrument, e.g. Rubystar (BMG Labtechnologies, Offenburg, Germany) or Viewlux (Perkin-Elmer). The ratio of the emissions at 665 nm and at 620 nm is taken as a measure of the amount of phosphorylated substrate peptide. The data are normalized (enzyme reaction without inhibitor=0% inhibition, all other assay components, but no enzyme=100% inhibition), and IC50 values are calculated using a 4 parameter equation (minimum, maximum, IC50, Hill; Y=max+(min−max)/(1+(X/IC50)Hill)).

MOLM-13 cell line = assay: MOLM-13 cell proliferation assay (alamarBlue); type: cell-based; conditions: Homo sapiens; MOLM-13 cells, 96 hours incubation, inhibition of cell proliferation
Method: In accordance with the invention, the substances were tested for their ability to inhibit the proliferation of the MOLM-13 cell linie (Deutsche Sammlung far Mikroorganismen and Zellkulturen [German Collection of Microorganisms and Cell Cultures], ACC 554). Cell viability was determined by means of the alamarBlue® reagent (Invitrogen) in a Victor X3 Multilabel Reader (Perkin Elmer). The excitation wavelength was 530 nm and the emission wavelength […].
The MOLM-13 cells were shown at a density of 4000 cells/well in 100 μl of growth medium on 96-well microtitre plates. After overnight incubation at 37° C., the fluorescence values (CI values) were determined. The plates were then treated with various substance dilutions and incubated at 37° C. for 96 hours. Subsequently, the fluorescence values were determined (CO values). For the data analysis, the CI values were subtracted from the CO values and the results were compared between cells which had been treated with various dilutions of the substance or only with buffer solution. The IC50 values (substance concentration needed for 50% inhibition of cell proliferation) were calculated therefrom.

[2] = 10 μM ATP (low ATP concentration), read-out: IC50 [Plk-1] (10 μM ATP)
[3] = 10 mM ATP (high ATP concentration), read-out: IC50 [Plk-1] (10 mM ATP)

T2 sequence (P53350 33-345): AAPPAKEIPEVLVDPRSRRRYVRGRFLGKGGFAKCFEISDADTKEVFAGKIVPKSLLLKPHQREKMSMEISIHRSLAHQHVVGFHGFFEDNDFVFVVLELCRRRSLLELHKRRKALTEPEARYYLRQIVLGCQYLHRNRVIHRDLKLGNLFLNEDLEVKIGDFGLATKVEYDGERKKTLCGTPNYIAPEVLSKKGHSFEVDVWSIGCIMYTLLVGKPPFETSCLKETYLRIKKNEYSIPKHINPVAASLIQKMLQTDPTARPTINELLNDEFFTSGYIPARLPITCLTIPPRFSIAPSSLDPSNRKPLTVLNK

| IC50 [1] | IC50 (Plk-1; [2]) | IC50 (MOLM-13 cell line) | IC50 (Plk-1; [3]) | Structure (SMILES) |
| --- | --- | --- | --- | --- |
| 243 nM |  | 114 nM | 19 nM | COc1cc(C(=O)NC2CCN(C)CC2)cnc1Nc1cc2c(cn1)N(C)C(=O)C(C)N2C1CCCC1 (stereo not shown) [Example 6, 6-[(1-Cyclopentyl-2,4-dimethyl-3-oxo-1,2,3,4-tetrahydropyrido[3,4-b]pyrazin-7-yl)amino]-5-methoxy-N-(1-methylpiperidin-4-yl)pyridine-3-carboxamide] |
| 276 nM | 11 nM | 80 nM | 30 nM | CC[C@@H]1C(=O)N(C)c2cnc(Nc3ncc(C(=O)NCC(F)(F)F)cc3OC)cc2N1C1CCCC1 [Example 7, 6-[[(2R)-1-Cyclopentyl-2-ethyl-1,2,3,4-tetrahydro-4-methyl-3-oxopyrido[3,4-b]pyrazin-7-yl]amino]-5-methoxy-N-(2,2,2-trifluoroethyl)-3-pyridinecarboxamide] |
| 333 nM | 9 nM | 72 nM | 22 nM | CC[C@@H]1C(=O)N(C)c2cnc(Nc3ncc(C(=O)NCCOC)cc3OC)cc2N1C1CCCC1 [Example 8, 6-[[(2R)-1-Cyclopentyl-2-ethyl-1,2,3,4-tetrahydro-4-methyl-3-oxopyrido[3,4-b]pyrazin-7-yl]amino]-5-methoxy-N-(2-methoxyethyl)-3-pyridinecarboxamide] |
| 343 nM |  | 76 nM | 17 nM | CCc1cc(C(=O)N[C@@H]2CCCCNC2=O)cnc1Nc1cc2c(cn1)N(C)C(=O)[C@@H](CC)N2C1CCCC1 [Example 9, 6-{[(2R)-1-Cyclopentyl-2-ethyl-4-methyl-3-oxo-1,2,3,4-tetrahydropyrido[3,4-b]pyrazin-7-yl]amino}-5-ethyl-N-[(3R)-2-oxoazepan-3-yl]pyridine-3-carboxamide] |
| 376 nM |  | 43 nM | 31 nM | CC[C@@H]1C(=O)N(C)c2cnc(Nc3ncc(C(=O)NC4CCOCC4)cc3OC)cc2N1C1CCCC1 [Example 10, 6-[[(2R)-1-Cyclopentyl-2-ethyl-1,2,3,4-tetrahydro-4-methyl-3-oxopyrido[3,4-b]pyrazin-7-yl]amino]-5-methoxy-N-(tetrahydro-2H-pyran-4-yl)-3-pyridinecarboxamide] |
| 393 nM |  | 74 nM | 57 nM | CC[C@@H]1C(=O)N(C)c2cnc(Nc3ncc(C(=O)NC(C)(C)CO)cc3OC)cc2N1C1CCCC1 [Example 11, 6-[[(2R)-1-Cyclopentyl-2-ethyl-1,2,3,4-tetrahydro-4-methyl-3-oxopyrido[3,4-b]pyrazin-7-yl]amino]-N-(2-hydroxy-1,1-dimethylethyl)-5-methoxy-3-pyridinecarboxamide] |

Continued, compound first:

| Structure (SMILES) | IC50 [1] | IC50 (Plk-1; [2]) | IC50 (MOLM-13 cell line) | IC50 (Plk-1; [3]) |
| --- | --- | --- | --- | --- |
| COc1cc(C(=O)NC2CC2)cnc1Nc1cc2c(cn1)N(C)C(=O)C(C)N2C1CCCC1 (stereo not shown) [Example 1, 6-{[1-Cyclopentyl-2,4-dimethyl-3-oxo-1,2,3,4-tetrahydropyrido[3,4-b]pyrazin-7-yl]amino}-N-cyclopropyl-5-methoxypyridine-3-carboxamide] | 204 nM | 15 nM | 209 nM |  |
| COc1cc(C(=O)NC2CC2)cnc1Nc1cc2c(cn1)N(C)C(=O)[C@@H](C)N2C1CCCC1 [Example 2, 6-{[(2R)-1-Cyclopentyl-2,4-dimethyl-3-oxo-1,2,3,4-tetrahydropyrido[3,4-b]pyrazin-7-yl]amino}-N-cyclopropyl-5-methoxypyridine-3-carboxamide] | 126 nM | 17 nM | 93 nM |  |
| CCc1cc(C(=O)NC2CC2)cnc1Nc1cc2c(cn1)N(C)C(=O)[C@@H](CC)N2C1CCCC1 [Example 3, 6-{[(2R)-1-Cyclopentyl-2-ethyl-4-methyl-3-oxo-1,2,3,4-tetrahydropyrido[3,4-b]pyrazin-7-yl]amino}-N-cyclopropyl-5-ethylpyridine-3-carboxamide] | 199 nM | 8 nM | 61 nM | 17 nM |
| CCC1C(=O)N(C)c2cnc(Nc3ncc(C(=O)NC4CC4)cc3OC)cc2N1C1CCCC1 (stereo not shown) [Example 4, 6-[(1-Cyclopentyl-2-ethyl-1,2,3,4-tetrahydro-4-methyl-3-oxopyrido[3,4-b]pyrazin-7-yl)amino]-N-cyclopropyl-5-methoxy-3-pyridinecarboxamide] | 450 nM |  | 68 nM | 31 nM |
| CC[C@@H]1C(=O)N(C)c2cnc(Nc3ncc(C(=O)NC4CC4)cc3OC)cc2N1C1CCCC1 [Example 5, 6-[[(2R)-1-Cyclopentyl-2-ethyl-1,2,3,4-tetrahydro-4-methyl-3-oxopyrido[3,4-b]pyrazin-7-yl)amino]-N-cyclopropyl-5-methoxy-3-pyridinecarboxamide] | 225 nM | 7 nM | 29 nM | 21 nM |

Source: patent US20160272635A1, “SUBSTITUTED DIHYDROPYRIDO[3,4-B]PYRAZINONES AS DUAL INHIBITORS OF BET PROTEINS AND POLO-LIKE KINASES” (BAYER PHARMA AKTIENGESELLSCHAFT, priority 2013, published 2016)
